Data set [1] is described as follows: Properties of respective derivatives (solubility). It is filed as physicochemical.
In the next data set the test system is rats. The data set is described as follows: Diuretic effect in rats. It is filed as in vivo, Wister strain male rats. Conditions: Rattus norvegicus, po, 5 h, urine volume up to 5 hours, % of control; for response vs control in vivo at 5 mg/kg: dosage 5 mg/kg; for response vs control in vivo at 10 mg/kg: dosage 10 mg/kg; for response vs control in vivo at 20 mg/kg: dosage 20 mg/kg; for response vs control in vivo at 2.5 mg/kg: dosage 2.5 mg/kg; for response vs control in vivo at 50 mg/kg: dosage 50 mg/kg. On the procedure: Wister strain male rats weighing about 200 g were starved overnight and each compound of this invention suspended in 25 ml/kg of physiological saline were administered orally to the 5 animals in each group, and the diuretic effect up to 5 hours after the administration was measured. The diuretic effect is expressed as the average urine volume (%) of the treated group divided by that of the control group.

Data set [2] deals with Carrageenin-Induced Foot Edema. The data set is described as follows: Inhibition for carrageenin-induced foot edema in rats. It is filed as in vivo, Wister strain male rats. Conditions: 1 hour before carrageenin, paw volume 3 hours after, probit method; for ED30: Rattus norvegicus, po, read-out: ED30 (dosage for 30% inhibition of edema). The protocol:
10 Wister strain male rats weighing about 120 g were used in each group. Each compound of this invention was suspended in a 5% aqueous arabic gum solution and administered orally to the animals. One hour after the administration, 0.1 ml of a 1% solution of carrageenin in physiological saline as a phlogistic agent was subcutaneously injected into the right hind paw of the rats which had been shaven previously. The volume of the right hind paw was measured before the administration of the phlogistic agent and 3 hours after the administration. The intensity of edema expressed as percent increase in the foot volume was calculated from the […] (1) and the percent inhibition of edema was calculated from the equation (2). [formula]
The effective dosage of each compound for inhibiting edema was expressed as ED30 (mg/kg) by calculating the dosage for 30% inhibition from the percent inhibition of edema according to the probit method.
On the technique in general: In the carrageenan paw model, swelling and tenderness develop within hours.

The nature of data set [3]: Acute oral toxicity in mice. Conditions: mouse, in vivo, mortality 7 days after administration. On the procedure: 10 ddY Strain male mice weighing about 20 g were used in each group. Each compound of this invention was suspended in a 5% aqueous gum arabic solution and administered orally. The mortality rate (%) was determined from the number of dead animals 7 days after the administration, and the dosage corresponding to 50% mortality was calculated and expressed as LD50 (mg/kg).

The results in this text go back to US4440770A, “Diuretic, hypotensive and antiedemic quinoline oximes” (Mochida Seiyaku Kabushiki Kaisha, priority 1980, dated 1984).

As usually defined, the LD50 is the dose expected to kill half of the subjects tested. Read a high LD50 as a less toxic substance. Turning to `CC(=O)N1CCC(=NO)c2cc(Cl)ccc21` [Compound I, 6-Chloro-4-oximino-1-acetyl-1,2,3,4-tetrahydroquinoline], in data set [1], the “Solubility in methanol, acetone and chloroform” value (shortened to “Solubility in methanol”) was “easily soluble”; the “Solubility in water and hexane” value is given as “Sparingly soluble”. In the data set on rats, this compound displayed a response vs control in vivo at 5 mg/kg of 131%, a response vs control in vivo at 10 mg/kg of 186% and a response vs control in vivo at 20 mg/kg of 260%. Moreover, the ED30 in data set [2] was found to be 39 mg/kg. The median lethal dose (LD50) at 168 h in data set [3] is above 5000 mg/kg.
With `CCC(=O)N1CCC(=NO)c2cc(Cl)ccc21` [Compound II, 6-Chloro-4-oximino-1-propionyl-1,2,3,4-tetrahydroquinoline], in data set [1], the “Solubility in methanol” value is recorded as “easily soluble”; the “Solubility in water and hexane” value is given as “Sparingly soluble”. In the data set with rats, this compound yielded a response vs control in vivo at 2.5 mg/kg of 253%, a response vs control in vivo at 5 mg/kg of 304% and a response vs control in vivo at 10 mg/kg of 410%. The ED30 in data set [2] was 8.8 mg/kg. In data set [3], this compound gave a 50% lethal dose (LD50) at 168 h of 3490 mg/kg.
On to `CCCC(=O)N1CCC(=NO)c2cc(Cl)ccc21` [Compound III, 6-Chloro-4-oximino-1-butyryl-1,2,3,4-tetrahydroquinoline], for which, in data set [1], the “Solubility in methanol” value is “easily soluble”; the “Solubility in water and hexane” value is on record as “Sparingly soluble”. For the same compound, in the data set on rats, the response vs control in vivo at 5 mg/kg worked out at 122%, the response vs control in vivo at 10 mg/kg was 172% and the response vs control in vivo at 20 mg/kg is 240%. In data set [2], the ED30 is 33 mg/kg. In data set [3], this compound gave an LD50 at 168 h above 5000 mg/kg.
Regarding `CC(C)C(=O)N1CCC(=NO)c2cc(Cl)ccc21` [Compound IV, 6-Chloro-4-oximino-1-isobutyryl-1,2,3,4-tetrahydroquinoline], in data set [1], the “Solubility in methanol” value is on record as “easily soluble”; the “Solubility in water and hexane” value is listed as “Sparingly soluble”. The same compound came in with a response vs control in vivo at 25 mg/kg with rats (dosage 25 mg/kg) of 119%. Also, in the data set on rats, the response vs control in vivo at 50 mg/kg came to 211%. Moreover, in data set [2], the ED30 came to 87 mg/kg. Besides, the median lethal dose (LD50) at 168 h in data set [3] is above 5000 mg/kg.
Regarding `CCCCC(=O)N1CCC(=NO)c2cc(Cl)ccc21` [Compound V, 6-Chloro-4-oximino-1-valeryl-1,2,3,4-tetrahydroquinoline], in data set [1], the “Solubility in methanol” value is “easily soluble”; the “Solubility in water and hexane” value is “Sparingly soluble”. This compound displayed a response vs control in vivo at 50 mg/kg in the data set on rats of 209%. Further, in data set [2], the ED30 was found to be 140 mg/kg. The LD50 at 168 h in data set [3] was above 5000 mg/kg.
With `CC(C)CC(=O)N1CCC(=NO)c2cc(Cl)ccc21` [Compound VI, 6-Chloro-4-oximino-1-isovaleryl-1,2,3,4-tetrahydroquinoline], in data set [1], the “Solubility in methanol” value is “easily soluble”; the “Solubility in water and hexane” value is “Sparingly soluble”. For the same compound, the response vs control in vivo at 50 mg/kg with rats was determined as 196%. Moreover, the ED30 in data set [2] amounted to 105 mg/kg. In addition, the LD50 at 168 h in data set [3] is above 5000 mg/kg.
For `O=C(Cc1ccccc1)N1CCC(=NO)c2cc(Cl)ccc21` [Compound VII, 6-Chloro-4-oximino-1-phenylacetyl-1,2,3,4-tetrahydroquinoline] the same measures were “easily soluble”, “Sparingly soluble”, 202%, 140 mg/kg and above 5000 mg/kg.
The like results for `O=C(C=Cc1ccccc1)N1CCC(=NO)c2cc(Cl)ccc21` [Compound VIII, 6-Chloro-4-oximino-1-cinnamoyl-1,2,3,4-tetrahydroquinoline] were, in that order, “easily soluble”, “Sparingly soluble”, 228%, 44 mg/kg and above 5000 mg/kg.
Consider `COC(=O)N1CCC(=NO)c2cc(Cl)ccc21` [Compound X, 6-Chloro-4-oximino-1-methoxycarbonyl-1,2,3,4-tetrahydroquinoline], for which, in data set [1], the “Solubility in ethanol and dichloromethane” value was “soluble”; the “Solubility in water and hexane” value was “Sparingly soluble”. In addition, in the data set on rats, the response vs control in vivo at 2.5 mg/kg worked out at 188%, the response vs control in vivo at 5 mg/kg came out at 306% and the response vs control in vivo at 10 mg/kg is 371%. Further, the ED30 in data set [2] is 14 mg/kg. The LD50 at 168 h in data set [3] stood at 4470 mg/kg.
As to `COC(=O)N1CCC(=NO)c2cc(Br)ccc21` [Compound XI, 6-Bromo-4-oximino-1-methoxycarbonyl-1,2,3,4-tetrahydroquinoline], in data set [1], the “Solubility in ethanol and dichloromethane” value was “soluble”; the “Solubility in water and hexane” value is “Sparingly soluble”. The compound further came in with a response vs control in vivo at 10 mg/kg in the data set with rats of 293%. In the data set with rats (dosage .5 mg/kg (so in the source)), this compound showed a response vs control in vivo at 0.5 mg/kg of 152%. The ED30 in data set [2] was 83 mg/kg. The compound also returned an LD50 at 168 h in data set [3] above 5000 mg/kg.
On to `CCOC(=O)N1CCC(=NO)c2cc(F)ccc21` [Compound XII, 6-Fluoro-4-oximino-1-ethoxycarbonyl-1,2,3,4-tetrahydroquinoline], for which, in data set [1], the “Solubility in ethanol and dichloromethane” value is “soluble”; the “Solubility in water and hexane” value is on record as “Sparingly soluble”. In the data set on rats, this compound gave a response vs control in vivo at 10 mg/kg of 180% and a response vs control in vivo at 20 mg/kg of 285%. Besides, in data set [2], the ED30 was found to be 86 mg/kg. Further, the LD50 at 168 h in data set [3] is above 5000 mg/kg.
For the compound `CCOC(=O)N1CCC(=NO)c2cc(Cl)ccc21` [Compound XIII, 6-Chloro-4-oximino-1-ethoxycarbonyl-1,2,3,4-tetrahydroquinoline], in data set [1], the “Solubility in ethanol and dichloromethane” value was “soluble”; the “Solubility in water and hexane” value was “Sparingly soluble”. For the same compound, in the data set on rats, the response vs control in vivo at 10 mg/kg came to 204% and the response vs control in vivo at 20 mg/kg turned out to be 310%. Besides, the ED30 in data set [2] was determined as 49 mg/kg. In data set [3], the LD50 at 168 h was above 5000 mg/kg.
With `CCC(=O)N1CCC(=NO)c2cc(F)ccc21` [Compound XV, 6-Fluoro-4-oximino-1-propionyl-1,2,3,4-tetrahydroquinoline], in data set [1], the “Solubility in ethanol and dichloromethane” value is listed as “soluble”; the “Solubility in water and hexane” value is reported as “Sparingly soluble”. In addition, in the data set on rats, the response vs control in vivo at 2.5 mg/kg was 209%, the response vs control in vivo at 5 mg/kg was 347% and the response vs control in vivo at 10 mg/kg turned out to be 425%. Moreover, in data set [2], the ED30 was found to be 9.3 mg/kg. In addition, the 50% lethal dose (LD50) at 168 h in data set [3] came to 3440 mg/kg.
Take `NS(=O)(=O)c1cc(C(=O)O)c(NCc2ccco2)cc1Cl` [Furosemide, reference compound]: in the data set with rats, the response vs control in vivo at 5 mg/kg stood at 133%.
As to `COC(=O)N1CCC(=NO)c2cc(F)ccc21` [IX, 6-Fluoro-4-oximino-1-methoxycarbonyl-1,2,3,4-tetrahydroquinoline], in data set [1], the “Solubility in ethanol and dichloromethane” value is given as “soluble”; the “Solubility in water and hexane” value is recorded as “Sparingly soluble”. Moreover, in the data set with rats, the response vs control in vivo at 2.5 mg/kg turned out to be 251%, the response vs control in vivo at 5 mg/kg is 309% and the response vs control in vivo at 10 mg/kg turned out to be 408%. Moreover, in data set [2], the ED30 was 22 mg/kg. This compound also displayed a 50% lethal dose (LD50) at 168 h in data set [3] above 5000 mg/kg.
Regarding `CCCCC1C(=O)N(c2ccccc2)N(c2ccccc2)C1=O` [Phenylbutazone, reference compound], the ED30 in data set [2] was found to be 65 mg/kg. Also, in data set [2] (oral), the “ED30 (dosage for 30% inhibition of edema)” value amounted to 63 mg/kg.
For the compound `CC(=O)N1CCC(=NO)c2cc(Br)ccc21` [XIV, 6-Bromo-4-oximino-1-acetyl-1,2,3,4-tetrahydroquinoline], in data set [1], the “Solubility in ethanol and dichloromethane” value is “soluble”; the “Solubility in water and hexane” value is reported as “Sparingly soluble”. The compound further displayed a response vs control in vivo at 20 mg/kg in the data set with rats of 234%. In addition, the ED30 in data set [2] came out at 182 mg/kg. In data set [3], this compound yielded an LD50 at 168 h above 5000 mg/kg.
With `CNC(=O)N1CCC(=NO)c2cc(Cl)ccc21` [XIX, 6-Chloro-4-oximino-1-methylcarbamoyl-1,2,3,4-tetrahydroquinoline], in data set [1], the “Solubility in ethanol and dichloromethane” value is reported as “soluble”; the “Solubility in water and hexane” value is listed as “Sparingly soluble”. The compound further showed a response vs control in vivo at 50 mg/kg with rats of 180%. Besides, in data set [2], the ED30 was determined as 62 mg/kg. In addition, the median lethal dose (LD50) at 168 h in data set [3] was above 5000 mg/kg.
With `CCC(=O)N1CCC(=NO)c2cc(Br)ccc21` [XVI, 6-Bromo-4-oximino-1-propionyl-1,2,3,4-tetrahydroquinoline], in data set [1], the “Solubility in ethanol and dichloromethane” value is given as “soluble”; the “Solubility in water and hexane” value was “Sparingly soluble”. In addition, in the data set on rats, the response vs control in vivo at 5 mg/kg came to 243% and the response vs control in vivo at 10 mg/kg was determined as 380%. Further, the ED30 in data set [2] was determined as 16 mg/kg. The compound further came in with an LD50 at 168 h in data set [3] of 4710 mg/kg.
